Data: ChEMBL document CHEMBL1201862, “PubChem BioAssay data set” (2004)
Activity calls are given as the source filed them.

Experiments:
[1] = test system: HEK293; test: NOD1 signaling inhibitors, primary screen, cell-based, luminescence, uHTS (AID 1578); format: functional; settings: Homo sapiens
[2] = target: Tumor necrosis factor (Homo sapiens, UniProt P01375); test: TNFa-triggered NF-kB activation inhibitors, SAR follow-up, cell-based, revised (AID 2337); format: functional
[3] = target: T1, Hexokinase HKDC1 (Homo sapiens, UniProt Q2TB90); test: HKDC1 hexokinase inhibitors, dose response, biochemical, W721R variant (AID 504729); format: functional
T1 sequence (Q2TB90 whole entry): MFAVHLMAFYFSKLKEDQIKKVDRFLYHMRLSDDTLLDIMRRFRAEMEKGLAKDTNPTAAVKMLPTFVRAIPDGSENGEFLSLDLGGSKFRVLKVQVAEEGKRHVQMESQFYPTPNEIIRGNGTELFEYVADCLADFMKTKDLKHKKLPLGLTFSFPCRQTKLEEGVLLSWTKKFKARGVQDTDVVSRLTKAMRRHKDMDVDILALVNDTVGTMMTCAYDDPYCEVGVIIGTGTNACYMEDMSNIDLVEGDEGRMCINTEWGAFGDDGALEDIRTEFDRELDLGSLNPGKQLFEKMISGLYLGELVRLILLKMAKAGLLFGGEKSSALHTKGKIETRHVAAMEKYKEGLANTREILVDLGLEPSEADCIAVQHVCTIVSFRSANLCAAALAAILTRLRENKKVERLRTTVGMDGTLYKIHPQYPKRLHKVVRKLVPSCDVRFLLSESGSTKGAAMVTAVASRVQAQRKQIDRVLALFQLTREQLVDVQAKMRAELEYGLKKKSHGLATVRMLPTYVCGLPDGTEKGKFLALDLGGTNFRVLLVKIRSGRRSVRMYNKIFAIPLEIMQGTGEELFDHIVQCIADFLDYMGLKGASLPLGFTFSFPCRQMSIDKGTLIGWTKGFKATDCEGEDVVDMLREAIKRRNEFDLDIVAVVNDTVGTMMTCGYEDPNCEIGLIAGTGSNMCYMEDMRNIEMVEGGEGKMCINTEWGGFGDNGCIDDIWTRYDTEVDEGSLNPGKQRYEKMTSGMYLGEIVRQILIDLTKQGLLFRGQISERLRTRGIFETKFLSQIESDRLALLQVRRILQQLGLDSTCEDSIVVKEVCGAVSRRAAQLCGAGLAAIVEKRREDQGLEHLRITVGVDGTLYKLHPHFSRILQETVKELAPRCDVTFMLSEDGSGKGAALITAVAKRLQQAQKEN

[4] = target: T2, Nucleotide-binding oligomerization domain-containing protein 2 (Homo sapiens, UniProt Q9HC29); test: NOD2 signaling inhibitors, cell-based, luminescence, uHTS, HEK293 (AID 1566); format: functional
[5] = target: Heat shock protein HSP 90-alpha (Homo sapiens, UniProt P07900); format: functional, organism-based
[6] = target: T3, Runt-related transcription factor 1/Core-binding factor subunit beta (Homo sapiens, UniProt Q01196+Q13951); test: inhibitors of RUNX1 Runt–CBFb-SMMHC binding, biochemical, TR-FRET (AID 1438); format: protein assay
[7] = target: T4, Nucleotide-binding oligomerization domain-containing protein 1 (Homo sapiens, UniProt Q9Y239); test: NOD1 signaling inhibitors, SAR follow-up, revised (AID 2333); format: functional
T4 sequence (Q9Y239 whole entry): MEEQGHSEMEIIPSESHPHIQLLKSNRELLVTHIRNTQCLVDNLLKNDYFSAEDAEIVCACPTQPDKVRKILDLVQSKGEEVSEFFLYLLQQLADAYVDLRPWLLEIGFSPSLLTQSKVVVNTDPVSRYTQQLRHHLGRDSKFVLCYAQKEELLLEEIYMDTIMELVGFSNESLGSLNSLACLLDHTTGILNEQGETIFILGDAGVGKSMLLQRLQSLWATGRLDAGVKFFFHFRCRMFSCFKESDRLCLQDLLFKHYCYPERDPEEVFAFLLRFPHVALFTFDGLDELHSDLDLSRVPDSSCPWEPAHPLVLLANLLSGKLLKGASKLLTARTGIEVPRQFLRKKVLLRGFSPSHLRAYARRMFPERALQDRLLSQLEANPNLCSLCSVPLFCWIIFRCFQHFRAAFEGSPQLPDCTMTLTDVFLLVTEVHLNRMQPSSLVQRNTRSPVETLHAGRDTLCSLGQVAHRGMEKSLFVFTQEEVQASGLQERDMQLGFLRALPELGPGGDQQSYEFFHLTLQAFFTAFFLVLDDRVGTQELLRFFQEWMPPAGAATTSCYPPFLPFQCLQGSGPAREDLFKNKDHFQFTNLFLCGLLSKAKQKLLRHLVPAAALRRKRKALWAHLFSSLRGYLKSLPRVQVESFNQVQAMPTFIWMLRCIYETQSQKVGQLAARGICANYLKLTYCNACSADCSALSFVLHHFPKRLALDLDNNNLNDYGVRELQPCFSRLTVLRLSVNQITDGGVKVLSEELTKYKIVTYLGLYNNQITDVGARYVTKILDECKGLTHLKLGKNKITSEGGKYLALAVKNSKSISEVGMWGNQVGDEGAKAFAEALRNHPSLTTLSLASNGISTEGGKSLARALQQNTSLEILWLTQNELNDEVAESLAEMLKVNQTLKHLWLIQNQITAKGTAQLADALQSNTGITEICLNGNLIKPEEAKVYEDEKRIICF

[8] = target: G-protein coupled receptor 35 (Homo sapiens, UniProt Q9HC97); test: GPR35 antagonists blocking zaprinast-driven arrestin recruitment, primary screen, imaging, U2OS, beta-arrestin-GFP, zaprinast agonist (AID 2058); format: functional;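 note: antagonist potency meaning inhibition of agonist-induced arrestin redistribution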
[9] = target: T2, Nucleotide-binding oligomerization domain-containing protein 2; test: PubChem AID 2334; format: functional
[10] = test system: HEK293; test: cells; format: functional, cell-based; settings: Homo sapiens
[11] = test system: HEK293; test: cells; settings: Homo sapiens
[12] = test system: HEK293; test: NOD2 signaling inhibitors in MDP-stimulated cells, cell-based, uHTS, luminescence (AID 2001); format: functional; settings: Homo sapiens
[13] = test system: HEK293; test: cells; format: functional, cell-based; settings: Homo sapiens; remark: listed apart in the source
[14] = target: T3, Runt-related transcription factor 1/Core-binding factor subunit beta; test: inhibitors of RUNX1 Runt–CBFb-SMMHC binding, primary screen, biochemical, FRET, Cerulean-Runt, Venus-CBFb-SMMHC, uHTS (AID 1434); format: protein assay;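 note: partner is the CBFb-SMMHC leukemia fusion protein rather than wild-type CBFb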
[15] = THP-1 cell cytotoxicity, dose response, cytotoxicity control for Vif-APOBEC3G degradation inhibitor project, THP-1 cells (AID 1117359); format: functional; settings: Human immunodeficiency virus 1, THP-1
[16] = test system: HEK293; test: cells; format: functional, cell-based; settings: Homo sapiens; remark: listed apart in the source
[17] = target: Beta-galactosidase (Escherichia coli, UniProt Q8VNN2); test: beta-galactosidase enzyme inhibitors and activators, dose response, artefact control for CCR6 antagonist project, biochemical, E. coli enzyme, set 3 (AID 504712); format: functional
[18] = cytotoxicity toward DRD oncogenic fibroblasts, dose response, cell-based, non-viral oncogenic, luminescence (AID 1934); format: functional; settings: Homo sapiens
[19] = Luminescence Cell-Based Dose Confirmation HTS to Identify Inhibitors of 5'UTR Stem-Loop Driven Alpha-Synuclein mRNA Translation in H4 Neuroglioblastoma Cells. [Related pubchem assays: 1827 (Project Summary), 1813 (Primary HTS)]; format: functional
[20] = Luminescence Cell-Based Dose Retest to Confirm Activators of 5'UTR Stem-Loop Driven Alpha-Synuclein mRNA Translation in H4 Neuroglioblastoma Cells. [Related pubchem assays (depositor defined):AID1813, AID1829]; format: functional
[21] = Luminescence Cell-Based Dose Response HTS to Identify Activators of Luciferase Translation or Activity in H4-C Neuroglioblastoma Cells. [Related pubchem assays: 1829 (Project Summary), 1814 (Primary HTS)]; format: functional
[22] = inhibitors of firefly luciferase expression or activity, dose response, H4 neuroglioma cells, luminescence (AID 1990); format: functional, cell-based
[23] = test system: BJ; test: cytotoxicity toward BJ-TERT fibroblasts, dose response, cell-based, RAS-independent, luminescence (AID 1933); format: functional; settings: Homo sapiens
[24] = test system: BJ; test: cytotoxicity toward BJ-TERT-LT-ST fibroblasts, dose response, cell-based, RAS-independent, luminescence (AID 1935); format: functional; settings: Homo sapiens;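 note: BJ fibroblasts immortalized with TERT plus LT and ST oncogenes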
[25] = Luminescence Cell-Based Dose Response HTS to Identify Inhibitors of 5'UTR Stem-Loop Driven Prion Protein mRNA Translation in H4 Neuroglioblastoma Cells. [Related pubchem assays: 1827 (Project Summary), 1813 (Primary HTS)]; format: functional
[26] = test system: BJ; test: cells; format: functional, cell-based; settings: Homo sapiens
[27] = Luminescence Cell-Based Dose Response HTS to Identify Inhibitors of Luciferase Translation or Activity in H4-C Neuroglioblastoma Cells. [Related pubchem assays: 1813 (Primary HTS), 1827 (Project Summary)]; format: functional
[28] = inhibitors of SNCA 5'UTR-driven reporter translation, confirmation, H4 neuroglioma cells, luminescence (AID 1988); format: functional, cell-based
[29] = Luminescence Cell-Based Dose Response HTS to Identify Activators of 5'UTR Stem-Loop Driven Prion Protein mRNA Translation in H4-C Neuroglioblastoma Cells. [Related pubchem assays: 1829 (Project Summary), 1814 (Primary HTS)]; format: functional
[30] = Luminescence Cell-Based Dose HTS Response to Identify Inhibitors of 5'UTR Stem-Loop Driven Prion Protein mRNA Translation in H4-C Neuroglioblastoma Cells. [Related pubchem assays (depositor defined):AID1814, AID1827]; format: functional

T2 sequence (Q9HC29 whole entry, the tested form may be a part): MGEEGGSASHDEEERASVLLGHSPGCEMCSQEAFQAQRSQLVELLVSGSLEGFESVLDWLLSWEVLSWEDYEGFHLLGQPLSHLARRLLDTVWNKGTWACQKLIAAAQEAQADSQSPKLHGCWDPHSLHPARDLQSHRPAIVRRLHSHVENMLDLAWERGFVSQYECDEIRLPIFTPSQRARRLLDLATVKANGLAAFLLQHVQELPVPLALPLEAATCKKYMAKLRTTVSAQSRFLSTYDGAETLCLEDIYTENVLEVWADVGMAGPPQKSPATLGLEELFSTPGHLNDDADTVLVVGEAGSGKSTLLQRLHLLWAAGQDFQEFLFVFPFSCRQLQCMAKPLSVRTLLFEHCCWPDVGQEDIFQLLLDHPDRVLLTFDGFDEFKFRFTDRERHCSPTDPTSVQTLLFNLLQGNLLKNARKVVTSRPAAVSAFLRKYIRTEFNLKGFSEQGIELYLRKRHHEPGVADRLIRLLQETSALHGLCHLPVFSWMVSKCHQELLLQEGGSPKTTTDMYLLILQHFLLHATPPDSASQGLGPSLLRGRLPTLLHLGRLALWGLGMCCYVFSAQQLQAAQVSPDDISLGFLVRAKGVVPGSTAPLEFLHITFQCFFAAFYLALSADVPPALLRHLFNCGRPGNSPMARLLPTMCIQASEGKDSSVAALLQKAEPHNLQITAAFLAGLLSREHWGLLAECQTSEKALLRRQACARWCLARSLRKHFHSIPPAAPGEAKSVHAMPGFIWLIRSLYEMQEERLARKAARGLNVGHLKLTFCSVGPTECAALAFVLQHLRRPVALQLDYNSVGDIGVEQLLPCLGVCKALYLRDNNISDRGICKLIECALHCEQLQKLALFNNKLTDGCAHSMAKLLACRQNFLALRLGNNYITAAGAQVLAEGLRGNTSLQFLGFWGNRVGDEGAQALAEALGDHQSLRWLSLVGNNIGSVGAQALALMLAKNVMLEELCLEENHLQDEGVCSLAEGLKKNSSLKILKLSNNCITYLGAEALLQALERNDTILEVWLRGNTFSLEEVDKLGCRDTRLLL
T3 sequence (Q01196 whole entry, the tested form may be a part): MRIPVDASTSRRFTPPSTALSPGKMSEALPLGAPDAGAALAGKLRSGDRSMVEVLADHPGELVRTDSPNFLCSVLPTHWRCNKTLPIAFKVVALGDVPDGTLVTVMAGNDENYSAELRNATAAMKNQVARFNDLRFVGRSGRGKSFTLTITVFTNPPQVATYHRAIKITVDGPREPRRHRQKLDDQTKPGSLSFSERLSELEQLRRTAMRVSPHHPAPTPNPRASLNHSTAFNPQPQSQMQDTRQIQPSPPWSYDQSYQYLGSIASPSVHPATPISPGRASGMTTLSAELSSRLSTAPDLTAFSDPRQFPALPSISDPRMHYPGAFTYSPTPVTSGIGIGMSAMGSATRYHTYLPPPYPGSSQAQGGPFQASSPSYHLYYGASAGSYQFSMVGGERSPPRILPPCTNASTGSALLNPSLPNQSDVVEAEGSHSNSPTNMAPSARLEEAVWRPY
T3 sequence (Q13951 whole entry, the tested form may be a part): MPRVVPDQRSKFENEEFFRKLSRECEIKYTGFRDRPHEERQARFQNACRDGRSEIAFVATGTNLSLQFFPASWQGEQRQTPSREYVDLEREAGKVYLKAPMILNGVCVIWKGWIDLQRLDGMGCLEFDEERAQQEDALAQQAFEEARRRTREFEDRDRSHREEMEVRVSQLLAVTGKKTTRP
Chain of Beta-galactosidase (Q8VNN2 whole entry): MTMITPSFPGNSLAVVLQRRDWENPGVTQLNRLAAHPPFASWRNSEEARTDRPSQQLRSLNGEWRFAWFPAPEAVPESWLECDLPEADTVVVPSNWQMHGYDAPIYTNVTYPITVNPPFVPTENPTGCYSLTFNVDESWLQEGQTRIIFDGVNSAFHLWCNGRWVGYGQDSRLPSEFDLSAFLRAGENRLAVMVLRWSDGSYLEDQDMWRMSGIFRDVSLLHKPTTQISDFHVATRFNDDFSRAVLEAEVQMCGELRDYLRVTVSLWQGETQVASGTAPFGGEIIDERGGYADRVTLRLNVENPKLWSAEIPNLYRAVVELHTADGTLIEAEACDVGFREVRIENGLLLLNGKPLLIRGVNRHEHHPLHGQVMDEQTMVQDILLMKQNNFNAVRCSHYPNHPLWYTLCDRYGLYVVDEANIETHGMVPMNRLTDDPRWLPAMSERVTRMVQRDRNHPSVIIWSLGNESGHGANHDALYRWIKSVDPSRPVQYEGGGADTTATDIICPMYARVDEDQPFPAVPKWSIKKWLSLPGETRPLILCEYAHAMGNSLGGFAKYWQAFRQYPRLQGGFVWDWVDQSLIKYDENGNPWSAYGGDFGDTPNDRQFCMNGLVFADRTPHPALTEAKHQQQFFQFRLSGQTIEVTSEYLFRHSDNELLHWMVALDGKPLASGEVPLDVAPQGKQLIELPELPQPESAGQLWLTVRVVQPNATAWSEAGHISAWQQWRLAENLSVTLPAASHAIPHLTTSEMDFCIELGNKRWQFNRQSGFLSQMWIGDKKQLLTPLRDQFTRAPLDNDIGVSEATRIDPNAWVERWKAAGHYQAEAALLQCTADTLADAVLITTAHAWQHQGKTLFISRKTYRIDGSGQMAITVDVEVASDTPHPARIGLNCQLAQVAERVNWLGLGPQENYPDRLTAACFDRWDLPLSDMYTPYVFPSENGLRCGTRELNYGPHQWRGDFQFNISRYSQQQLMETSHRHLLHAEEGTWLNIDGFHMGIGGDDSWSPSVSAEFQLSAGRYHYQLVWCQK
Chain of G-protein coupled receptor 35 (Q9HC97 whole entry, the tested form may be a part): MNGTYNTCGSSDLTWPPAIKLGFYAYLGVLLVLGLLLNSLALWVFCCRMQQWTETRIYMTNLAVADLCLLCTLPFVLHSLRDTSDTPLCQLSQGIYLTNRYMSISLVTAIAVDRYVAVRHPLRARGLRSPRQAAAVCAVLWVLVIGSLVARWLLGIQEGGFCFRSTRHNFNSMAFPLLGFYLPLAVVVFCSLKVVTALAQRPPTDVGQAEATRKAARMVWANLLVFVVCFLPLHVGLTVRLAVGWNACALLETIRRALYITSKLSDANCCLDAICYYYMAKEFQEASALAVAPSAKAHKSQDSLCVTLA
Chain of Tumor necrosis factor (P01375 whole entry): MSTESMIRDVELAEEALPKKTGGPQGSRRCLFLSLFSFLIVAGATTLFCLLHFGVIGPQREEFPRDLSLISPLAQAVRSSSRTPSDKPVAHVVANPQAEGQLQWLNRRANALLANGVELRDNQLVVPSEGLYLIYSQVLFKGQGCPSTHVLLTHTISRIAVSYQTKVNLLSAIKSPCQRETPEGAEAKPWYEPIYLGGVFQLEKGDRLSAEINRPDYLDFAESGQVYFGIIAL

## CCOC(=O)C1=C(Cc2ccc(Cl)cc2)C(=O)c2ccccc2C1=O
[1]
  EC50: 12.2 µM (active)
[2]
  IC50: 6.24 µM (active)
[3]
  IC50: 12.2 µM (active)
[4]
  EC50: > 20 µM (inactive)
[5]
  AC50: 27.2 µM (active)
[6]
  IC50: 43.6 µM (active)
[7]
  IC50: 5.78 µM (active)
[8]
  IC50: 4.3 µM (active)
[9]
  IC50: 7.01 µM (active)
[10]
  IC50: > 20 µM (inactive)
[11]
  IC50: > 20 µM (inactive)
[12]
  IC50: > 20 µM (inactive)
[13]
  IC50: > 20 µM (inactive)
[14]
  IC50: > 100 µM (inactive)
[15]
  CC50: 19.4 µM (active)
[16]
  IC50: > 20 µM (inactive)
[17]
  IC50: > 66.6 µM (inactive)

## COc1ccc2c(c1)C(C)=CC(C)(C)N2S(=O)(=O)c1ccc(NC(C)=O)cc1
[18]
  EC50: 1.06 µM (inconclusive)
[19]
  EC50: 11.6 µM (active)
[20]
  EC50: 11.6 µM (inconclusive)
[21]
  EC50: 2.91 µM (inconclusive)
[22]
  EC50: 14.4 µM (active)
[23]
  EC50: 1.89 µM (inconclusive)
[24]
  EC50: 7.05 µM (inconclusive)
[25]
  EC50: > 60 µM (not active)
[26]
  EC50: 5.92 µM (active)
[27]
  EC50: 2.91 µM (active)
[28]
  EC50: 0.514 µM (active)
[29]
  EC50: 1.69 µM (inconclusive)
[30]
  EC50: 1.69 µM (active)
